Test results as given in patent US20040209315A1, “Methods to identify agents that increase or decrease UBP43 activity and methods for use of such agents” (priority 2003, published 2004).

What was measured:
[1] = system: UBP43+/+ and UBP43−/− mice; assay: Viability of mice after daily ip poly(I—C) injection; assay type: in vivo; settings: daily ip poly(I—C) 5 μg/g body weight
Experimental: (§1) (a) Seven mice of each group (UBP43 +/+ and UBP43−/−) were ip injected daily with poly(I—C). Viability was monitored daily. (b) UBP43+/+ and UBP43−/− mice (n=4 for each group) were ip injected daily with poly(I—C). The total number of white blood cells (WEC) in the peripheral blood was counted daily after each poly(I—C) injection. (c) UBP43+/+ and UBP43−/− mice (n=5 for each group) were either left untreated or were ip injected with poly(I—C) 24 h prior to bone marrow extraction. Bone marrow cells were counted in control and poly(I—C) injected group of mice (two femurs from each mouse).
(§2) Poly(I—C) injection and hematopoietic cell counting: Poly(I—C) (Sigma) was dissolved in phosphate buffered saline and intraperitoneally (ip) injected to mice at 5 μg/g body weight (gbw). Blood and bone marrow nucleated cells were counted in Turk solution (3% acetic acid and 0.01% crystal violet in H2O).
(§3) UBP43-null mice are sensitive to potent IFN-inducer poly(I—C). Injection with synthetic double stranded RNA-polyinosinic acid-polycytidylic acid (poly(I—C)) has been commonly used to induce endogenous IFN production in mice. […] There were dramatic decreases (over 90%) in the total number of white blood cells in peripheral blood and nucleated cells in bone marrow of UBP43−/− mice.

[2] = system: hematopoietic cells transplanted from UBP43+/+ or UBP43−/− mice; assay: Bone marrow transplantation, flow cytometric analysis of CD45.2+ donor blood cells before and after poly(I—C) injection; assay type: in vivo
Excerpt: (a) Hematopoietic cells transplanted from UBP43−/− mice to UBP43+/+ congenic strain mice are hypersensitive to poly(I—C) injection. Bone marrow cells (CD45.2+) from individual UBP43+/+ and UBP43−/− mice (n=4 for each group) were isolated and transplanted to lethally irradiated congenic strain mice (CD45.2−). Six months after the transplantation, flow cytometric analysis was done to determine the relative amount of peripheral blood cells contributed from the donor or recipient mice based on CD45-2 immunostaining before and after poly(I—C) injection (48 h). Flow cytometric analysis results from one representative mouse transplanted with UBP43+/+ or UBP43−/− bone marrow are presented. (b) UBP43−/− bone marrow cells are hypersensitive to IFNβ treatment. Bone marrow cells from UBP43+/+ and UBP43−/− mice were cultured at 2×10^4 cells/ml in CFU assay medium in the presence of various concentrations of IFNβ. Total colony number was counted after 12 days of culture. Results of a single representative experiment of two independent experiments are shown. […]
Bone marrow transplantation. […] The appearance of donor origin blood cells (CD45.2+) was detected by flow cytometric analysis with […] (FITC) conjugated CD45.2 antibodies (BD Biosciences). […]

[3] = system: UBP43+/+ and UBP43−/− mice; assay: Hematopoietic cell counting (peripheral white blood cells, bone marrow nucleated cells) after poly(I—C) injection; assay type: in vivo
Experimental: as §1, §2, §3

[4] = system: UBP43± and UBP43−/− bone marrow cells; assay: Liquid bone marrow cell culture, Trypan blue dye exclusion assay; assay type: cell-based, mice; settings: 10 ng/ml, 48 hours
Experimental: (a) Bone marrow cells isolated from UBP43+/+ and UBP43−/− mice were cultured in vitro in the presence or the absence of INFβ (100 units/ml) for 48 hours. TUNEL assay was performed to study the percentage of apoptosis cells. […] Cells were then subjected to Trypan blue dye exclusion assay. Each data point represents the mean of three independent experiments. Error bar represents standard deviation about the mean.
In vitro bone marrow cell culture.
TNFα and the type II IFN-IFNγ are commonly used to study bone marrow cell growth and apoptosis and in the analysis of various knockout mouse models.

Substance	viability ([1]; UBP43+/+ mice (n=7))	time within which all mice died post treatment ([1]; UBP43−/− mice (n=7)) [h]	relative amount of CD45.2+ cells in the peripheral blood ([2]; UBP43+/+ donor, 48 h after poly(I—C) injection)	blood cells of the UBP43−/− genotype (CD45.2+) ([2]; UBP43−/− donor, 48 hours post administration, 79% before dosing) [%]	decrease in number of total peripheral white blood cells ([3]; UBP43+/+ mice, ip poly(I—C)) [%]	decrease in total bone marrow nucleated cells ([3]; UBP43+/+ mice, ip poly(I—C) 24 h prior to bone marrow extraction) [%]	decrease in total number of white blood cells in peripheral blood ([3]; UBP43−/− mice, ip poly(I—C))	decrease in nucleated cells in bone marrow ([3]; UBP43−/− mice, ip poly(I—C) 24 h prior to bone marrow extraction)	difference in cell death between UBP43± cells and UBP43−/− cells [4]
polyinosinic acid-polycytidylic acid [poly(I—C)]	survived the course of treatment	≤ 72	did not change	12	20	30	over 90%	over 90%	
IFNγ: type II IFN, proapoptotic cytokine (Peprotech)									did not cause a significant difference
TNF-α									did not cause a significant difference
